{"source": "PubChem BioAssay (NCI)", "test_in_all_cases": "NCI-60 cell line screen, 48 h", "key": {"786-0 renal": {"test_system": "786-0 renal"}, "A498 renal": {"test_system": "A498 renal"}, "A549 NSCLC": {"test_system": "A549 NSCLC"}, "ACHN renal": {"test_system": "ACHN renal"}, "BT-549 breast": {"test_system": "BT-549 breast"}, "CAKI-1 renal": {"test_system": "CAKI-1 renal"}, "CCRF-CEM leukemia": {"test_system": "CCRF-CEM leukemia"}, "COLO 205 colon": {"test_system": "COLO 205 colon"}, "DU-145 prostate": {"test_system": "DU-145 prostate"}, "EKVX NSCLC": {"test_system": "EKVX NSCLC"}, "HCC-2998 colon": {"test_system": "HCC-2998 colon"}, "HCT-116 colon": {"test_system": "HCT-116 colon"}, "HCT-15 colon": {"test_system": "HCT-15 colon"}, "HL-60(TB) leukemia": {"test_system": "HL-60(TB) leukemia"}, "HOP-62 NSCLC": {"test_system": "HOP-62 NSCLC"}, "HOP-92 NSCLC": {"test_system": "HOP-92 NSCLC"}, "HS 578T breast": {"test_system": "HS 578T breast"}, "HT29 colon": {"test_system": "HT29 colon"}, "IGROV1 ovarian": {"test_system": "IGROV1 ovarian"}, "K-562 leukemia": {"test_system": "K-562 leukemia"}, "KM12 colon": {"test_system": "KM12 colon"}, "LOX IMVI melanoma": {"test_system": "LOX IMVI melanoma"}, "M14 melanoma": {"test_system": "M14 melanoma"}, "MALME-3M melanoma": {"test_system": "MALME-3M melanoma"}, "MCF7 breast": {"test_system": "MCF7 breast"}, "MDA-MB-231 breast": {"test_system": "MDA-MB-231 breast"}, "MDA-MB-435": {"test_system": "MDA-MB-435"}, "MDA-N": {"test_system": "MDA-N"}, "MOLT-4 leukemia": {"test_system": "MOLT-4 leukemia"}, "NCI-H226 lung": {"test_system": "NCI-H226 lung"}, "NCI-H23 lung": {"test_system": "NCI-H23 lung"}, "NCI-H460 lung": {"test_system": "NCI-H460 lung"}, "NCI-H522 lung": {"test_system": "NCI-H522 lung"}, "NCI/ADR-RES ovarian": {"test_system": "NCI/ADR-RES ovarian"}, "OVCAR-3 ovarian": {"test_system": "OVCAR-3 ovarian"}, "OVCAR-4 ovarian": {"test_system": "OVCAR-4 ovarian"}, "OVCAR-5 ovarian": {"test_system": "OVCAR-5 ovarian"}, "OVCAR-8 ovarian": {"test_system": "OVCAR-8 ovarian"}, "PC-3 prostate": {"test_system": "PC-3 prostate"}, "RPMI-8226 leukemia": {"test_system": "RPMI-8226 leukemia"}, "RXF 393 renal": {"test_system": "RXF 393 renal"}, "SF-268 CNS": {"test_system": "SF-268 CNS"}, "SF-295 CNS": {"test_system": "SF-295 CNS"}, "SF-539 CNS": {"test_system": "SF-539 CNS"}, "SK-MEL-2 melanoma": {"test_system": "SK-MEL-2 melanoma"}, "SK-MEL-28 melanoma": {"test_system": "SK-MEL-28 melanoma"}, "SK-MEL-5 melanoma": {"test_system": "SK-MEL-5 melanoma"}, "SK-OV-3 ovarian": {"test_system": "SK-OV-3 ovarian"}, "SN12C renal": {"test_system": "SN12C renal"}, "SNB-19 CNS": {"test_system": "SNB-19 CNS"}, "SNB-75 CNS": {"test_system": "SNB-75 CNS"}, "SR leukemia": {"test_system": "SR leukemia"}, "SW-620 colon": {"test_system": "SW-620 colon"}, "T-47D breast": {"test_system": "T-47D breast"}, "TK-10 renal": {"test_system": "TK-10 renal"}, "U251 CNS": {"test_system": "U251 CNS"}, "UACC-257 melanoma": {"test_system": "UACC-257 melanoma"}, "UACC-62 melanoma": {"test_system": "UACC-62 melanoma"}, "UO-31 renal": {"test_system": "UO-31 renal"}}, "note": "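Where inhibition never reached the appropriate level, the endpoint shown equals the highest concentration tested. Otherwise, values were interpolated linearly from a five-concentration, 48-hour dose response in 96-well plates. TGI is the concentration that stops growth completely.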", "data": [{"compound": "OCCCNCC(O)c1ccc(OCc2ccccc2)c(OCc2ccccc2)c1", "note": "(centres undefined)", "values": [{"measurement": "TGI", "setting": "786-0 renal", "value": 14.3, "unit": "µM"}, {"measurement": "TGI", "setting": "A498 renal", "value": 25.8, "unit": "µM"}, {"measurement": "TGI", "setting": "A549 NSCLC", "value": 26.3, "unit": "µM"}, {"measurement": "TGI", "setting": "ACHN renal", "value": 23.8, "unit": "µM"}, {"measurement": "TGI", "setting": "BT-549 breast", "value": 31.9, "unit": "µM"}, {"measurement": "TGI", "setting": "CAKI-1 renal", "value": 32.5, "unit": "µM"}, {"measurement": "TGI", "setting": "CCRF-CEM leukemia", "value": 17.5, "unit": "µM"}, {"measurement": "TGI", "setting": "COLO 205 colon", "value": 10.2, "unit": "µM"}, {"measurement": "TGI", "setting": "DU-145 prostate", "value": 30.8, "unit": "µM"}, {"measurement": "TGI", "setting": "EKVX NSCLC", "value": 30.4, "unit": "µM"}, {"measurement": "TGI", "setting": "HCC-2998 colon", "value": 10, "unit": "µM"}, {"measurement": "TGI", "setting": "HCT-116 colon", "value": 18.3, "unit": "µM"}, {"measurement": "TGI", "setting": "HCT-15 colon", "value": 27.5, "unit": "µM"}, {"measurement": "TGI", "setting": "HL-60(TB) leukemia", "value": 21.4, "unit": "µM"}, {"measurement": "TGI", "setting": "HOP-62 NSCLC", "value": 28.8, "unit": "µM"}, {"measurement": "TGI", "setting": "HOP-92 NSCLC", "value": 24.1, "unit": "µM"}, {"measurement": "TGI", "setting": "HS 578T breast", "value": 35.6, "unit": "µM"}, {"measurement": "TGI", "setting": "HT29 colon", "value": 16, "unit": "µM"}, {"measurement": "TGI", "setting": "IGROV1 ovarian", "value": 23.4, "unit": "µM"}, {"measurement": "TGI", "setting": "K-562 leukemia", "value": 33.5, "unit": "µM"}, {"measurement": "TGI", "setting": "KM12 colon", "value": 26, "unit": "µM"}, {"measurement": "TGI", "setting": "LOX IMVI melanoma", "value": 13.7, "unit": "µM"}, {"measurement": "TGI", "setting": "M14 melanoma", "value": 31.5, "unit": "µM"}, {"measurement": "TGI", "setting": "MALME-3M melanoma", "value": 29.7, "unit": "µM"}, {"measurement": "TGI", "setting": "MCF7 breast", "value": 16, "unit": "µM"}, {"measurement": "TGI", "setting": "MDA-MB-231 breast", "value": 28.7, "unit": "µM"}, {"measurement": "TGI", "setting": "MDA-MB-435", "value": 15.2, "unit": "µM"}, {"measurement": "TGI", "setting": "MDA-N", "value": 21.6, "unit": "µM"}, {"measurement": "TGI", "setting": "MOLT-4 leukemia", "value": 19.2, "unit": "µM"}, {"measurement": "TGI", "setting": "NCI-H226 lung", "value": 29.7, "unit": "µM"}, {"measurement": "TGI", "setting": "NCI-H23 lung", "value": 33.3, "unit": "µM"}, {"measurement": "TGI", "setting": "NCI-H460 lung", "value": 15.8, "unit": "µM"}, {"measurement": "TGI", "setting": "NCI-H522 lung", "value": 30, "unit": "µM"}, {"measurement": "TGI", "setting": "NCI/ADR-RES ovarian", "value": 37.2, "unit": "µM"}, {"measurement": "TGI", "setting": "OVCAR-3 ovarian", "value": 30.4, "unit": "µM"}, {"measurement": "TGI", "setting": "OVCAR-4 ovarian", "value": 18.3, "unit": "µM"}, {"measurement": "TGI", "setting": "OVCAR-5 ovarian", "value": 29.5, "unit": "µM"}, {"measurement": "TGI", "setting": "OVCAR-8 ovarian", "value": 26.6, "unit": "µM"}, {"measurement": "TGI", "setting": "PC-3 prostate", "value": 25.4, "unit": "µM"}, {"measurement": "TGI", "setting": "RPMI-8226 leukemia", "value": 19.9, "unit": "µM"}, {"measurement": "TGI", "setting": "RXF 393 renal", "value": 42.7, "unit": "µM"}, {"measurement": "TGI", "setting": "SF-268 CNS", "value": 30.9, "unit": "µM"}, {"measurement": "TGI", "setting": "SF-295 CNS", "value": 20.8, "unit": "µM"}, {"measurement": "TGI", "setting": "SF-539 CNS", "value": 27.2, "unit": "µM"}, {"measurement": "TGI", "setting": "SK-MEL-2 melanoma", "value": 15.1, "unit": "µM"}, {"measurement": "TGI", "setting": "SK-MEL-28 melanoma", "value": 20.4, "unit": "µM"}, {"measurement": "TGI", "setting": "SK-MEL-5 melanoma", "value": 13.5, "unit": "µM"}, {"measurement": "TGI", "setting": "SK-OV-3 ovarian", "value": 24.4, "unit": "µM"}, {"measurement": "TGI", "setting": "SN12C renal", "value": 29.7, "unit": "µM"}, {"measurement": "TGI", "setting": "SNB-19 CNS", "value": 38.5, "unit": "µM"}, {"measurement": "TGI", "setting": "SNB-75 CNS", "value": 14.1, "unit": "µM"}, {"measurement": "TGI", "setting": "SR leukemia", "value": 28, "unit": "µM"}, {"measurement": "TGI", "setting": "SW-620 colon", "value": 15.8, "unit": "µM"}, {"measurement": "TGI", "setting": "T-47D breast", "value": 34.4, "unit": "µM"}, {"measurement": "TGI", "setting": "TK-10 renal", "value": 15.8, "unit": "µM"}, {"measurement": "TGI", "setting": "U251 CNS", "value": 23.1, "unit": "µM"}, {"measurement": "TGI", "setting": "UACC-257 melanoma", "value": 25.6, "unit": "µM"}, {"measurement": "TGI", "setting": "UACC-62 melanoma", "value": 42.8, "unit": "µM"}, {"measurement": "TGI", "setting": "UO-31 renal", "value": 28.8, "unit": "µM"}]}]}
